Biological target: Human recombinant PRMT5 in complex with human recombinant MEP50 (Homo sapiens (Human), UniProt O14744)
Experiment: PRMT5/MEP50 AlphaLISA enzyme inhibitory assay
Assay type: biochemical
Settings: PRMT5/MEP50 25 nM, SAM 10 μM, Biotin-H4 peptide 30 nM
Description: Human recombinant PRMT5 in complex with human recombinant MEP50, co-expressed in an insect cell/baculovirus expression system was purchased from Reaction Biology (Malvern, Pa.). […] Anti-H4R3-Me AlphaLISA acceptor beads and Streptavidin labeled AlphaLISA donor beads were obtained from PerkinElmer (Waltham, Mass.). S-adenosylmethionine (SAM), Tween20, dimethylsulfoxide (DMSO), and Tris buffer were obtained from Sigma at the highest level of purity available.
General Procedure for PRMT5/MEP50 AlphaLISA Enzyme Inhibitory Assays: Assays were performed in the buffer consisting of 50 mM Tris, pH 8.5, 5 mM MgCl2, 50 mM NaCl with 0.01% Tween20 and 1 mM DTT added right before the assay. 2.5 μL of compound solution in the assay buffer with 4% DMSO and 5 μL of PRMT5/MRP50 complex/SAM mixture solution in the assay buffer which was pre-incubated for 30 minutes were added into a white low volume 384 well microtiter plate. This mixture solution was incubated for 15 minutes with gentle shaking at room temperature. Methyl transfer reaction was initiated by adding 2.5 μL of Biotin-H4 (1-21) peptide substrate solution in the assay buffer. Final concentrations of PRMT5/MEP50, SAM, Biotin-H4 peptide substrate, and DMSO were 25 nM, 10 μM, 30 nM, and 1%, respectively. The reaction was allowed to perform for 120 minutes in dark with gentle shaking at room temperature after which 5 μL of Anti-H4R3-Me AlphaLISA acceptor beads in detection buffer from the manufacturer was added into the reaction mixture followed by incubation for 60 minutes. 10 μL of Streptavidin labeled AlphaLISA donor beads in detection buffer was added into the mixture followed by 30 minute incubation. Final acceptor and donor beads concentrations were 10 μg/mL. Plates were read on an Envision multimode plate reader from PerkinElmer (Waltham Mass., USA) with an excitation wavelength of 680 nm and emission wavelength of 615 nm. IC50 values of inhibitors were obtained by fitting the fluorescence intensity vs inhibitor concentrations in a sigmoidal dose-response curve (variable slopes, four parameters) using Prism 7 (La Jolla, Calif.).

Human recombinant PRMT5 in complex with human recombinant MEP50, sequence (O14744 whole entry): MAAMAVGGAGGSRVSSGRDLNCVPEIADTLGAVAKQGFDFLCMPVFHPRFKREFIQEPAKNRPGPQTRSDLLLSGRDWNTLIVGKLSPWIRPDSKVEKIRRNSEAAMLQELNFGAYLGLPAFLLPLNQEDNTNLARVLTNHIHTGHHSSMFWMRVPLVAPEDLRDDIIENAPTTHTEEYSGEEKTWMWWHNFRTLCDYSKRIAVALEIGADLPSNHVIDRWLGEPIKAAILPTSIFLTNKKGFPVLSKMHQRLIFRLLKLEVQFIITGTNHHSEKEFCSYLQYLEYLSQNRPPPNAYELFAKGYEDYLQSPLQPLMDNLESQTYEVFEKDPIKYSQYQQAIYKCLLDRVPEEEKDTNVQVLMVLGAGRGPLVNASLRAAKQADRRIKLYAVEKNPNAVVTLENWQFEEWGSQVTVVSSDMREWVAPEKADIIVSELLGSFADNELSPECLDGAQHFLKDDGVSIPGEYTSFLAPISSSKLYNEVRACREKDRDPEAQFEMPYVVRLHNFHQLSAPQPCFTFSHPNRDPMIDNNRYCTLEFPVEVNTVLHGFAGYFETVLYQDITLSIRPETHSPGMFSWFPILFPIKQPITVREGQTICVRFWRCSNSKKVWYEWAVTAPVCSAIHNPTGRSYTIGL
Human recombinant PRMT5 in complex with human recombinant MEP50, sequence (Q9BQA1 whole entry partner): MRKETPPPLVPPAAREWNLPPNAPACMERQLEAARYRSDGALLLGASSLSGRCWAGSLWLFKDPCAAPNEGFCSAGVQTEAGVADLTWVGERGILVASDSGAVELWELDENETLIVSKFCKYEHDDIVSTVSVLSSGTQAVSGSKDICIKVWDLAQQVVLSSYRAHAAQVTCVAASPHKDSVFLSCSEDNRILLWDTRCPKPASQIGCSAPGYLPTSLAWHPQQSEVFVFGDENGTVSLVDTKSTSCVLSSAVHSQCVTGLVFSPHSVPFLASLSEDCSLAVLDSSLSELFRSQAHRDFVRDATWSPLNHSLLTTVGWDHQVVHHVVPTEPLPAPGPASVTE

Row | Structure (SMILES) | IC50 [nM]
1 | O=C1c2cc(NC3COC3)ccc2CCN1CC(O)CN1CCc2ccccc2C1 (stereo not shown) [Compound 1, 2-(3-(3,4-dihydroisoquinolin-2(1H)-yl)-2-hydroxypropyl)-7-(oxetan-3-ylamino)-3,4-dihydroisoquinolin-1(2H)-one] | 97
2 | CC(=O)N1CCC(Nc2cc(F)c3c(c2)C(=O)N(C[C@@H](O)CN2CCc4ccccc4C2)CCO3)CC1 [Compound 2b, (S)-7-((1-acetylpiperidin-4-yl)amino)-4-(3-(3,4-dihydroisoquinolin-2(1H)-yl)-2-hydroxypropyl)-9-fluoro-3,4-dihydrobenzo[f][1,4]oxazepin-5(2H)-one] | 159
3 | O=c1c2cc(NC3COC3)ccc2ncn1CC(O)CN1CCc2ccccc2C1 (stereo not shown) [Compound 3, 3-(3-(3,4-dihydroisoquinolin-2(1H)-yl)-2-hydroxypropyl)-6-(oxetan-3-ylamino)quinazolin-4(3H)-one] | 568
4 | O=c1c2cc(NC3COC3)ccc2ccn1CC(O)CN1CCc2ccccc2C1 (stereo not shown) [Compound 4, 2-(3-(3,4-dihydroisoquinolin-2(1H)-yl)-2-hydroxypropyl)-7-(oxetan-3-ylamino)isoquinolin-1(2H)-one] | 303
5 | O=C1c2cc(NC3COC3)ccc2OCCN1CC(O)CN1CCc2ccccc2C1 (stereo not shown) [Compound 5, 4-(3-(3,4-dihydroisoquinolin-2(1H)-yl)-2-hydroxypropyl)-7-(oxetan-3-ylamino)-3,4-dihydrobenzo[f][1,4]oxazepin-5(2H)-one] | 131
6 | CC(=O)N1CC(Nc2ccc3c(c2)C(=O)N(CC(O)CN2CCc4ccccc4C2)CC3)C1 (stereo not shown) [Compound 6, 7-((1-acetylazetidin-3-yl)amino)-2-(3-(3,4-dihydroisoquinolin-2(1H)-yl)-2-hydroxypropyl)-3,4-dihydroisoquinolin-1(2H)-one] | 77
7 | CS(=O)(=O)N1CC(Nc2ccc3c(c2)C(=O)N(C[C@@H](O)CN2CCc4ccccc4C2)CC3)C1 [Compound 8, (S)-2-(3-(3,4-dihydroisoquinolin-2(1H)-yl)-2-hydroxypropyl)-7-((1-(methylsulfonyl)azetidin-3-yl)amino)-3,4-dihydroisoquinolin-1(2H)-one] | 232
8 | CN1CC(Nc2ccc3c(c2)C(=O)N(C[C@@H](O)CN2CCc4ccccc4C2)CC3)C1 [Compound 9, (S)-2-(3-(3,4-dihydroisoquinolin-2(1H)-yl)-2-hydroxypropyl)-7-((1-methylazetidin-3-yl)amino)-3,4-dihydroisoquinolin-1(2H)-one] | 2440
9 | O=C1c2cc(N[C@H]3CCOC3)ccc2CCN1C[C@@H](O)CN1CCc2ccccc2C1 [Compound 10, 2-((S)-3-(3,4-dihydroisoquinolin-2(1H)-yl)-2-hydroxypropyl)-7-(((S)-tetrahydrofuran-3-yl)amino)-3,4-dihydroisoquinolin-1(2H)-one] | 1010
10 | O=C1c2cc(N[C@@H]3CCOC3)ccc2CCN1C[C@@H](O)CN1CCc2ccccc2C1 [Compound 11, 2-((S)-3-(3,4-dihydroisoquinolin-2(1H)-yl)-2-hydroxypropyl)-7-(((R)-tetrahydrofuran-3-yl)amino)-3,4-dihydroisoquinolin-1(2H)-one] | 462
11 | Cn1cc(Nc2ccc3c(c2)C(=O)N(CC(O)CN2CCc4ccccc4C2)CC3)cn1 (stereo not shown) [Compound 12] | 29
12 | Cn1cc(Nc2ccc3c(c2)C(=O)N(C[C@@H](O)CN2CCc4ccccc4C2)CC3)cn1 [Compound 12b, (S)-2-(3-(3,4-dihydroisoquinolin-2(1H)-yl)-2-hydroxypropyl)-7-((1-methyl-1H-pyrazol-4-yl)amino)-3,4-dihydroisoquinolin-1(2H)-one] | 235
13 | Cn1cc(-c2ccc3c(c2)C(=O)N(C[C@@H](O)CN2CCc4ccccc4C2)CC3)cn1 [Compound 13, (S)-2-(3-(3,4-dihydroisoquinolin-2(1H)-yl)-2-hydroxypropyl)-7-(1-methyl-1H-pyrazol-4-yl)-3,4-dihydroisoquinolin-1(2H)-one] | 578
14 | O=C1c2cc(-c3cncnc3)ccc2CCN1CC(O)CN1CCc2ccccc2C1 (stereo not shown) [Compound 14, 2-(3-(3,4-dihydroisoquinolin-2(1H)-yl)-2-hydroxypropyl)-7-(pyrimidin-5-yl)-3,4-dihydroisoquinolin-1(2H)-one] | 158
15 | CC1(C)CN(CC(O)CN2CCc3ccccc3C2)C(=O)c2cc(NC3COC3)ccc21 (stereo not shown) [Compound 15, 2-(3-(3,4-dihydroisoquinolin-2(1H)-yl)-2-hydroxypropyl)-4,4-dimethyl-7-(oxetan-3-ylamino)-3,4-dihydroisoquinolin-1(2H)-one] | 217
16 | O=C1c2cc(NC3COC3)cnc2CCN1CC(O)CN1CCc2ccccc2C1 (stereo not shown) [Compound 16, 6-(3-(3,4-dihydroisoquinolin-2(1H)-yl)-2-hydroxypropyl)-3-(oxetan-3-ylamino)-7,8-dihydro-1,6-naphthyridin-5(6H)-one] | 447
17 | CC(=O)N1CCC(Nc2cc3c(cc2F)OCCN(C[C@H](O)CN2CCc4ccccc4C2)C3=O)CC1 [Compound 17a, (R)-7-((1-acetylpiperidin-4-yl)amino)-4-(3-(3,4-dihydroisoquinolin-2(1H)-yl)-2-hydroxypropyl)-8-fluoro-3,4-dihydrobenzo[f][1,4]oxazepin-5(2H)-one] | 248
18 | CC(=O)N1CCC(Nc2cc3c(cc2F)OCCN(C[C@@H](O)CN2CCc4ccccc4C2)C3=O)CC1 [Compound 17b, (S)-7-((1-acetylpiperidin-4-yl)amino)-4-(3-(3,4-dihydroisoquinolin-2(1H)-yl)-2-hydroxypropyl)-8-fluoro-3,4-dihydrobenzo[f][1,4]oxazepin-5(2H)-one] | 722
19 | O=C1c2cc(NC3CCOCC3)cnc2CCN1CC(O)CN1CCc2ccccc2C1 (stereo not shown) [Compound 18, 6-(3-(3,4-dihydroisoquinolin-2(1H)-yl)-2-hydroxypropyl)-3-((tetrahydro-2H-pyran-4-yl)amino)-7,8-dihydro-1,6-naphthyridin-5(6H)-one] | 2220

Results, then the compound that gave them:

Row | IC50 [nM] | Structure (SMILES)
20 | 14 | CC(=O)N1CCC(Nc2ccc3c(c2)C(=O)N(CC(O)CN2CCc4ccccc4C2)CC3)CC1 (racemic) [Compound 24, 7-((1-acetylpiperidin-4-yl)amino)-2-(3-(3,4-dihydroisoquinolin-2(1H)-yl)-2-hydroxypropyl)-3,4-dihydroisoquinolin-1(2H)-one]
21 | 13 | O=C1c2cc(Nc3ccnnc3)ccc2OCCN1CC(O)CN1CCc2ccccc2C1 (racemic) [Compound 30, 4-(3-(3,4-dihydroisoquinolin-2(1H)-yl)-2-hydroxypropyl)-7-(pyridazin-4-ylamino)-3,4-dihydrobenzo[f][1,4]oxazepin-5(2H)-one]
22 | 623 | CC(=O)N1CCC(Nc2cnc3c(c2)C(=O)N(CC(O)CN2CCc4ccccc4C2)CC3)CC1 (stereo not shown) [Compound 19, 3-((1-acetylpiperidin-4-yl)amino)-6-(3-(3,4-dihydroisoquinolin-2(1H)-yl)-2-hydroxypropyl)-7,8-dihydro-1,6-naphthyridin-5(6H)-one]
23 | 132 | Cn1cc(Nc2cnc3c(c2)C(=O)N(CC(O)CN2CCc4ccccc4C2)CC3)cn1 (stereo not shown) [Compound 20, 6-(3-(3,4-dihydroisoquinolin-2(1H)-yl)-2-hydroxypropyl)-3-((1-methyl-1H-pyrazol-4-yl)amino)-7,8-dihydro-1,6-naphthyridin-5(6H)-one]
24 | 480 | CC1Cc2ccc(NC3COC3)cc2C(=O)N1CC(O)CN1CCc2ccccc2C1 (stereo not shown) [Compound 21, 2-(3-(3,4-dihydroisoquinolin-2(1H)-yl)-2-hydroxypropyl)-3-methyl-7-(oxetan-3-ylamino)-3,4-dihydroisoquinolin-1(2H)-one]
25 | 21 | O=C1c2cc(Nc3cnn(C4COC4)c3)ccc2CCN1CC(O)CN1CCc2ccccc2C1 (stereo not shown) [Compound 22, 2-(3-(3,4-dihydroisoquinolin-2(1H)-yl)-2-hydroxypropyl)-7-((1-(oxetan-3-yl)-1H-pyrazol-4-yl)amino)-3,4-dihydroisoquinolin-1(2H)-one]
26 | 61 | Cn1ccc(Nc2ccc3c(c2)C(=O)N(CC(O)CN2CCc4ccccc4C2)CC3)n1 (stereo not shown) [Compound 23, 2-(3-(3,4-dihydroisoquinolin-2(1H)-yl)-2-hydroxypropyl)-7-((1-methyl-1H-pyrazol-3-yl)amino)-3,4-dihydroisoquinolin-1(2H)-one]
27 | 19 | CC(=O)N1CCC(Nc2ccc3c(c2)C(=O)N(C[C@@H](O)CN2CCc4ccccc4C2)CC3)CC1 [Compound 24b, (S)-7-((1-acetylpiperidin-4-yl)amino)-2-(3-(3,4-dihydroisoquinolin-2(1H)-yl)-2-hydroxypropyl)-3,4-dihydroisoquinolin-1(2H)-one]
28 | 10 | O=C1c2cc(Nc3cnn(C4CCOCC4)c3)ccc2CCN1CC(O)CN1CCc2ccccc2C1 (stereo not shown) [Compound 25, 2-(3-(3,4-dihydroisoquinolin-2(1H)-yl)-2-hydroxypropyl)-7-((1-(tetrahydro-2H-pyran-4-yl)-1H-pyrazol-4-yl)amino)-3,4-dihydroisoquinolin-1(2H)-one]

Reference: patent publication US11591326B2, “Inhibitors of protein arginine methyltransferase 5 (PRMT5), pharmaceutical products thereof, and methods thereof” (PHARMABLOCK SCIENCES (NANJING), INC., priority 2018, dated 2023)
